Test results as given in ChEMBL document CHEMBL3817761, “Chenopodium album metabolites act as dual topoisomerase inhibitors and induce apoptosis in the MCF7 cell line” (Medchemcomm, 2016).
pIC50: −log10 of the molar value. Active and inactive are the calls of the source. The calls are words filed in the database; no cut-off is given here.

How the values were obtained:
MCF7 [1] = assay: Cytotoxicity against human MCF7 cells assessed as reduction in cell viability after 72 hrs by MTT assay; assay type: functional, cell-based; conditions: MCF7, 72 h
[2] = Cytotoxicity against human SKBR3 cells assessed as reduction in cell viability after 72 hrs by MTT assay; assay type: functional, cell-based; conditions: SK-BR-3, 72 h
[3] = Cytotoxicity against human HCT116 cells assessed as reduction in cell viability after 72 hrs by MTT assay; assay type: functional, cell-based; conditions: HCT-116, 72 h
[4] = Cytotoxicity against human MOLT4 cells assessed as reduction in cell viability after 72 hrs by MTT assay; assay type: functional, cell-based; conditions: MOLT-4, 72 h
[5] = molecular target: T1, DNA topoisomerase 1 (Homo sapiens) (UniProt P11387); assay: Inhibition of human recombinant topoisomerase 1-mediated relaxation of supercoiled pBS (SK+) DNA at 60 uM after 30 mins by ethidium bromide staining based agarose gel electrophoresis
T1 sequence (whole entry): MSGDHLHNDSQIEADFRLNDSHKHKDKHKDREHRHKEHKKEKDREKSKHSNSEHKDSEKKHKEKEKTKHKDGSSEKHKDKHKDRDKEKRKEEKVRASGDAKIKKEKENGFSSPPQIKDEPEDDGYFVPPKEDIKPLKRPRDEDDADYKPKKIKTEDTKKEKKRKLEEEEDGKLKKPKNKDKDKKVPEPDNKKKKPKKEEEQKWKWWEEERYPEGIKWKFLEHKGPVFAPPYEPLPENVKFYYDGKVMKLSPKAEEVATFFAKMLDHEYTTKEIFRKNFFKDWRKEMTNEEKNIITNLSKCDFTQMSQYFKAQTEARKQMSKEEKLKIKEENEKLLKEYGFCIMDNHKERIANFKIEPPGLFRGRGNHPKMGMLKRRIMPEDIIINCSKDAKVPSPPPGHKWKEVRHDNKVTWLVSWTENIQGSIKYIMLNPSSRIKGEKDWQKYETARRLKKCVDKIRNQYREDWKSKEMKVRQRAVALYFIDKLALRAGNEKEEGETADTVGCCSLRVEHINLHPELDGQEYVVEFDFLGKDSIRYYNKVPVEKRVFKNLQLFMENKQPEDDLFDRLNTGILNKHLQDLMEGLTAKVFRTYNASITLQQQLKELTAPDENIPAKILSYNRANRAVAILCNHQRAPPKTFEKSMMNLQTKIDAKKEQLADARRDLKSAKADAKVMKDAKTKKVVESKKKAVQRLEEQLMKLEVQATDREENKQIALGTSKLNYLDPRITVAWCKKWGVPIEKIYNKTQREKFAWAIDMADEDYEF

[6] = molecular target: DNA topoisomerase 2-alpha (Homo sapiens) (UniProt P11388); assay: Inhibition of human recombinant topoisomerase 2-mediated relaxation of supercoiled pBS (SK+) DNA at 60 uM after 30 mins by ethidium bromide staining based agarose gel electrophoresis
[7] = molecular target: T1, DNA topoisomerase 1 (Homo sapiens); assay: Poisoning activity at human recombinant topoisomerase 1 assessed as stabilization of enzyme-supercoiled pBS (SK+) DNA complex at 60 uM after 30 mins by ethidium bromide staining based agarose gel electrophoresis
[8] = molecular target: DNA topoisomerase 2-alpha (Homo sapiens) (UniProt P11388); assay: Poisoning activity at human recombinant topoisomerase 2 assessed as stabilization of enzyme-supercoiled pBS (SK+) DNA complex at 60 uM after 30 mins by ethidium bromide staining based agarose gel electrophoresis
[9] = molecular target: T1, DNA topoisomerase 1 (Homo sapiens); assay: Poisoning activity at topoisomerase 1 in human MCF7 cells at 10 uM after 12 hrs by immunoband depletion assay; assay type: cell-based
[10] = molecular target: DNA topoisomerase 2-alpha (Homo sapiens) (UniProt P11388); assay: Poisoning activity at topoisomerase 2 in human MCF7 cells at 10 uM after 12 hrs by immunoband depletion assay; assay type: cell-based
[11] = molecular target: T1, DNA topoisomerase 1 (Homo sapiens); assay: Inhibition of CPT mediated formation of topoisomerase 1-supercoiled pBS (SK+) DNA complex in human MCF7 cells at 10 uM preincubated for 2 hrs followed by CPT addition measured after 4 to 12 hrs by immunoband depletion assay; assay type: cell-based
[12] = molecular target: DNA topoisomerase 2-alpha (Homo sapiens) (UniProt P11388); assay: Inhibition of ETO mediated formation of topoisomerase 2-supercoiled pBS (SK+) DNA complex in human MCF7 cells at 10 uM preincubated for 2 hrs followed by ETO addition measured after 4 to 12 hrs by immunoband depletion assay; assay type: cell-based
MCF7 [13] = assay: Induction of apoptosis in human MCF7 cells assessed as early apoptotic cells at 11.33 uM after 24 hrs by Annexin-V-FITC/propidium iodide staining based flow cytometry (reference value: 2.3 %); assay type: functional
MCF7 [14] = assay: Induction of apoptosis in human MCF7 cells assessed as late apoptotic cells at 11.33 uM after 24 hrs by Annexin-V-FITC/propidium iodide staining based flow cytometry (reference value: 0.1 %); assay type: functional
MCF7 [15] = assay: Induction of apoptosis in human MCF7 cells assessed as necrotic cells at 11.33 uM after 24 hrs by Annexin-V-FITC/propidium iodide staining based flow cytometry (reference value: 1.7 %); assay type: functional
MCF7 [16] = assay: Induction of apoptosis in human MCF7 cells assessed as necrotic cells at 11.33 uM after 48 hrs by Annexin-V-FITC/propidium iodide staining based flow cytometry (reference value: 0.4 %); assay type: functional
MCF7 [17] = assay: Induction of mitochondrial membrane depolarization in human MCF7 cells at 11.33 uM after 24 hrs by JC-1 staining based FACS assay (reference value: 9.9 %); assay type: functional
MCF7 [18] = assay: Induction of mitochondrial membrane depolarization in human MCF7 cells at 11.33 uM after 48 hrs by JC-1 staining based FACS assay (reference value: 9.9 %); assay type: functional
MCF7 [19] = assay: Induction of apoptosis in human MCF7 cells assessed as cell detachment at 11.33 uM after 24 hrs by inverted phase contrast microscopy; assay type: functional, cell-based
MCF7 [20] = assay: Induction of apoptosis in human MCF7 cells assessed as viable cells at 8.27 uM after 24 hrs by Annexin-V-FITC/propidium iodide staining based flow cytometry (reference value: 95.9 %); assay type: functional; conditions: MCF7, 24 h, read-out: Activity
MCF7 [21] = assay: Induction of apoptosis in human MCF7 cells assessed as early apoptotic cells at 8.27 uM after 48 hrs by Annexin-V-FITC/propidium iodide staining based flow cytometry (reference value: 0.4 %); assay type: functional
MCF7 [22] = assay: Induction of apoptosis in human MCF7 cells assessed as late apoptotic cells at 8.27 uM after 48 hrs by Annexin-V-FITC/propidium iodide staining based flow cytometry relative to control; assay type: functional
MCF7 [23] = assay: Induction of apoptosis in human MCF7 cells assessed as necrotic cells at 8.27 uM after 48 hrs by Annexin-V-FITC/propidium iodide staining based flow cytometry (reference value: 0.4 %); assay type: functional
MCF7 [24] = assay: Induction of apoptosis in human MCF7 cells assessed as caspase 9 cleavage at 8.27 uM after 48 hrs by Western blot analysis; assay type: functional, cell-based
MCF7 [25] = assay: Cell cycle arrest in human MCF7 cells assessed as accumulation at G0/G1 phase at 8.27 uM after 24 hrs by propidium iodide staining based flow cytometry (reference value: 50.3 %); assay type: functional
MCF7 [26] = assay: Cell cycle arrest in human MCF7 cells assessed as accumulation at G2/M phase at 8.27 uM after 48 hrs by propidium iodide staining based flow cytometry (reference value: 19.8 %); assay type: functional
MCF7 [27] = assay: Induction of mitochondrial membrane depolarization in human MCF7 cells assessed as ratio of red to green fluorescence at 8.27 uM after 48 hrs by JC-1 staining based FACS assay (reference value: 9.1); assay type: functional

Sequence of DNA topoisomerase 2-alpha (Homo sapiens) (P11388 whole entry): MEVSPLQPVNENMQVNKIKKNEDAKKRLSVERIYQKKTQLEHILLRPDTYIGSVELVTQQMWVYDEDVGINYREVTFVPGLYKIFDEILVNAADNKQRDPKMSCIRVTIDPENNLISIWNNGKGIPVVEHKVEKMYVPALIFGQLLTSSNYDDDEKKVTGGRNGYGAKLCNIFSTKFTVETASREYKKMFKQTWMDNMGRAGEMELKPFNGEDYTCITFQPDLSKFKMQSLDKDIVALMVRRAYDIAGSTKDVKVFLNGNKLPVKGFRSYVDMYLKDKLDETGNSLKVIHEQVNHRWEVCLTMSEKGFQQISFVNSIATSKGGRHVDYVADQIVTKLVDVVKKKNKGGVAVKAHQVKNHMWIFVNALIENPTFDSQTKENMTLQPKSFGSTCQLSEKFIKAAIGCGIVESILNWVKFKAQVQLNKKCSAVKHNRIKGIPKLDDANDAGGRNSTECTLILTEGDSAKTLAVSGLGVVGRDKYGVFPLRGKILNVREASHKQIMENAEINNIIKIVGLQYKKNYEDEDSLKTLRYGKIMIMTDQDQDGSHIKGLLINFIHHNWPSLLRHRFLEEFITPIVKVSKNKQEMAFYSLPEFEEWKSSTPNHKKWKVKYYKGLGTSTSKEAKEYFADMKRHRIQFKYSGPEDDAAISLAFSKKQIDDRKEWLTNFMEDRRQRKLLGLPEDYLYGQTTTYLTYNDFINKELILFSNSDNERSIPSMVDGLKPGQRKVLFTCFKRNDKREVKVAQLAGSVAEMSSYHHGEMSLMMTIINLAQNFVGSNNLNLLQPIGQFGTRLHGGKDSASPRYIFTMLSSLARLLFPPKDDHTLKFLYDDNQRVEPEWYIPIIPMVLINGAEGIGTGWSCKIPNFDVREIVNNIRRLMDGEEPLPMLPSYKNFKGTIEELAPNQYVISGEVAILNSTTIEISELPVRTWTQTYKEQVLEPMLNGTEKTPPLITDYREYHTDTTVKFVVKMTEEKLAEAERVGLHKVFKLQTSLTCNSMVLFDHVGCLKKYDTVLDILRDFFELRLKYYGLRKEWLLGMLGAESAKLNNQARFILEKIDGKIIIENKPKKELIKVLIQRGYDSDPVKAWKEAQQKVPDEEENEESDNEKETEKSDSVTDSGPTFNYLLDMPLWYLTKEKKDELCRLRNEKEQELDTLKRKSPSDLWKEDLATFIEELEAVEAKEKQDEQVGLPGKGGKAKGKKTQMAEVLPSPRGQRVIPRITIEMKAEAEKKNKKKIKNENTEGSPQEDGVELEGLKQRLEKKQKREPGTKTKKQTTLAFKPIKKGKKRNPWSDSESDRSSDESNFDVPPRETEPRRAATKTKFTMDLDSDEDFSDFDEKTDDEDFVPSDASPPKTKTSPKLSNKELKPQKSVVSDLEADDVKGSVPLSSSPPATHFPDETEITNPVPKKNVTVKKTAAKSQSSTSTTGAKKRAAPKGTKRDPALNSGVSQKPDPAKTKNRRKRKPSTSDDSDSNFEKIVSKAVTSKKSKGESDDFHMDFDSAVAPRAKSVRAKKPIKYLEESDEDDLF

With `CC1(C)CC[C@]2(C(=O)O)CC[C@]3(C)C(=CC[C@@H]4[C@@]5(C)CC[C@H](O[C@@H]6O[C@H](C(=O)O)[C@@H](O)[C@H](O)[C@H]6O)C(C)(C)[C@@H]5CC[C@]43C)[C@@H]2C1` the pIC50 (MCF7 [1]) was 4.95, the pIC50 [2] was 4.93 and the pIC50 [3] was 4.74. For the same molecule, the pIC50 [4] was 4.87, the inhibition [5] was “Active” and the inhibition [6] was “Active”. For the same molecule, the Activity [7] was “inactive”, the Activity [8] was “inactive” and the Activity [9] was “inactive”. The Activity [10] was “inactive”, the inhibition [11] was “Active” and the inhibition [12] was “Active”. It also gave an Activity (MCF7 [13]) of 11.6%, an Activity (MCF7 [14]) of 0.2% and an Activity (MCF7 [15]) of 0.7%. It also gave an Activity (MCF7 [16]) of 0.8%, an Activity (MCF7 [17]) of 14% and an Activity (MCF7 [18]) of 54.9%. For the same molecule, the Activity (MCF7 [19]) was “Active”.
`C[C@@H]1CC[C@@]2(OC1)O[C@H]1C[C@H]3[C@@H]4CC[C@H]5C[C@@H](O[C@@H]6O[C@H](CO)[C@H](O[C@@H]7O[C@H](CO)[C@@H](O)[C@H](O[C@@H]8OC[C@@H](O)[C@H](O)[C@H]8O)[C@H]7O[C@@H]7O[C@H](CO)[C@@H](O)[C@H](O)[C@H]7O)[C@H](O)[C@H]6O)CC[C@]5(C)[C@H]4CC[C@]3(C)[C@H]1[C@@H]2C` [DEGALACTOTIGONIN] gave a pIC50 (MCF7 [1]) of 5.08, a pIC50 [2] of 5.03 and a pIC50 [3] of 4.81. For the same molecule, the pIC50 [4] was 4.93, the inhibition [5] was “Active” and the inhibition [6] was “Active”. The Activity [7] was “inactive”, the Activity [8] was “inactive” and the Activity [9] was “inactive”. For the same molecule, the Activity [10] was “inactive”, the inhibition [11] was “Active” and the inhibition [12] was “Active”. It also gave a viability at 8.27 µM (MCF7 [20]) of 91%, an Activity (MCF7 [21]) of 98.7% and an Activity (MCF7 [22]) of 0.6%. For the same molecule, the Activity (MCF7 [23]) was 0%, the Activity (MCF7 [24]) was “Active” and the Activity (MCF7 [25]) was 43.8%. For the same molecule, the Activity (MCF7 [26]) was 22.5% and the Ratio (MCF7 [27]) was 0.437.
